Key:
Type in all cases: cell-based
M4 muscarinic receptor = target: T1, M4 muscarinic receptor (Homo sapiens, UniProt P08173); assay: Functional mobilization of intracellular calcium (FLIPR) in CHO cells expressing M4; conditions: for EC50: CHO cells expressing M4, FLIPR calcium; for Emax: CHO, 100% = maximum response obtained with the Carbachol control, read-out: M4 Efficacy
T1 construct: expressed in transfected cells; host or cells: CHO (M4-CHO)
T1 sequence (P08173 1-479): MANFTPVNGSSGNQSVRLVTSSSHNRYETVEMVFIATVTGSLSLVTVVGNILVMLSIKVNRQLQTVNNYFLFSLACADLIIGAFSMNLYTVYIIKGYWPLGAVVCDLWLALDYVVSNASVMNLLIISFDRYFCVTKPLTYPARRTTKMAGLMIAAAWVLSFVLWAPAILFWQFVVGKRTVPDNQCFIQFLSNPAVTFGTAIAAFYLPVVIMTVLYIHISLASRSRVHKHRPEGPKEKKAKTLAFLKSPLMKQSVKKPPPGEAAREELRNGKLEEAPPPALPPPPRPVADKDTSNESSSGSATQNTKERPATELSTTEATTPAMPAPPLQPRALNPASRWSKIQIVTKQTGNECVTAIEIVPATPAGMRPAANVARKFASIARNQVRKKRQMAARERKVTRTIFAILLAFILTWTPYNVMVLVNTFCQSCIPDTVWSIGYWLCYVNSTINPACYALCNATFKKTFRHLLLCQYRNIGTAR
Method: (§1) Functional Mobilization of Intracellular Calcium to Determine Muscarinic Receptor Activity:
(§2) CHO cells expressing muscarinic receptors (M1 to M5) are grown as monolayers in tissue culture flasks at 37° C. in a humidified atmosphere containing 5% CO2 and passaged every 3-5 days. The growth media is Dulbecco's modified eagles medium (DMEM, Gibco Cat# 12430-054), containing 25 mM Hepes and supplemented with Fetal Bovine Serum (Hyclone, cat# SH30071.03), 0.1 mM of MEM non-essential amino acids (GIBCO, Cat# 11140-050), 1 mM MEM Sodium Pyruvate (GIBCO Cat# 11360-070) and 100 units/ml of Penicillin G and 100 μg/ml of Streptomycin (GIBCO Cat# 15140-122). The recombinant muscarinic receptor cell lines are grown under antibiotic pressure with media containing 25 μg/ml zeocin and 500 μg/ml G418 (M1-CHO), 4 μg/ml puromycin, 50 μg/ml zeocin and 2.5 μg/ml blasticidin (M2 and M4-CHO) or 50 μg/ml zeocin and 4 μg/ml puromycin (M3 and M5-CHO).
(§3) Cells are harvested at 80-90% confluence using Versene (GIBCO Cat# 15040-066), collected by centrifugation and seeded 18-24 hrs prior to running the calcium assay at a density of 5,000-10,000 cells/well in […], clear-bottomed 384-well plates (BD Biocoat, poly-D-lysine, Cat#356663). The day of the experiment, the cells are washed with a plate washer (Bioteck Instruments, ELX 405) using bath 1 buffer (140 mM NaCl, 4,5 mM KCl, 2 mM CaCl2, 1 mM MgCl2, 10 mM Hepes-Na, 10 mM Glucose, pH 7.4, with NaOH) containing 1 mM Probenecid. Next, the calcium dye Fluo-3 (25 μl/well of Fluo-3 AM at 4 μM, Molecular Probes F-1241, in Bath 1 buffer containing 1 mM Probenecid) is added to the 25 μl of Bath 1 remaining in each well after the plate wash and the dye is loaded at 37° C. in the tissue culture incubator for 60-90 min. The fluorescent dye is removed using the plate washer with Bath 1 containing 1 mM Probenecid, leaving 25 μl/well of this solution after the wash. Alternatively, cells can be loaded with the calcium indicator from Molecular Devices (Calcium 3 Assay Reagents, Cat #R7181) adding 5 μl of a 5× solution dye in Bath 1 containing 1 mM Probenecid (10 ml per dye flask cat#R7182 to generate a solution […]) to 20 μl of the same buffer. After loading for 60 min, the experiment can be run without having to remove the dye.
(§4) Compounds are prepared at a 2× fold concentration in a 96-well plate (round bottom, Costar Corning cat#3656), by reconstituting the pre-spotted compounds in bath 1 containing 1 mM probenecid. The final concentration DMSO is 0.5%, and the amount of DMSO is normalized across the assay plate. To determine an agonist action of the compounds on muscarinic receptors, the reconstituted compounds are added (25 μl compound/well) to the cell assay plate (containing 25 μl/well) using the multi-channel robotic system of the FLIPR 3 Instrument (Molecular Devices, Sunnyvale, Calif.). To determine a functional inhibitory action of the compounds on muscarinic receptors, the reconstituted compounds are added (25 μl compound/well) to the assay plate and pre-incubated for 15 min prior to adding 25 μl of Carbachol at 3× the EC80 for each muscarinic subtype. Alternatively, the compounds can be co-applied simultaneously with the agonist. In both assay modes, the fluorescence is recorded for 60 sec (excitation wavelength is […] and emission wavelength 540 nm) using the FLIPR 3 instrument.
(§5) The potency, efficacy and selectivity of the muscarinic compounds were evaluated by screening the compound activity across the whole family (M1 to M5 cells). Compounds were also screened for activity on other proteins such as other GPCRs and ion channels to determine selectivity on M4 receptors.

M2 muscarinic receptor = target: T2, M2 muscarinic receptor (Homo sapiens, UniProt P08172); assay: Functional mobilization of intracellular calcium (FLIPR) in CHO cells expressing M2; conditions: for EC50: CHO cells expressing M2, FLIPR calcium; for Emax: CHO, 100% = maximum response obtained with the Carbachol control, read-out: M2 Efficacy
T2 construct: expressed in transfected cells; host or cells: CHO (M2-CHO)
T2 sequence (P08172 1-466): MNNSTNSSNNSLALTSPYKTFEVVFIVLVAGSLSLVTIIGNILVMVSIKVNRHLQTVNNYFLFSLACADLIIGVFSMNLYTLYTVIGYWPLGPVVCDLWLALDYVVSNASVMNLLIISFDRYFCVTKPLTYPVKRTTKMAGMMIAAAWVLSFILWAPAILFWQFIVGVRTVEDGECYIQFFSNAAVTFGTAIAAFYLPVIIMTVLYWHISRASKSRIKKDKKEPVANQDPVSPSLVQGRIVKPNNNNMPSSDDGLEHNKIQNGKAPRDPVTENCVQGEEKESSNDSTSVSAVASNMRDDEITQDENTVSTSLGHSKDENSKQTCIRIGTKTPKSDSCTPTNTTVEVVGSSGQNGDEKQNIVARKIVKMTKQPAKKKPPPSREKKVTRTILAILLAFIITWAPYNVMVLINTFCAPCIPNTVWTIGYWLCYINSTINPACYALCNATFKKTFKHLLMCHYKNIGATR
Method: as §1, §2, §3, §4, §5

M1 muscarinic receptor = target: T3, M1 muscarinic receptor (Homo sapiens, UniProt P11229); assay: Functional mobilization of intracellular calcium (FLIPR) in CHO cells expressing M1; conditions: for EC50: CHO cells expressing M1, FLIPR calcium; for Emax: CHO, 100% = maximum response obtained with the Carbachol control, read-out: M1 Efficacy
T3 construct: expressed in transfected cells; host or cells: CHO (M1-CHO)
T3 sequence (P11229 1-460): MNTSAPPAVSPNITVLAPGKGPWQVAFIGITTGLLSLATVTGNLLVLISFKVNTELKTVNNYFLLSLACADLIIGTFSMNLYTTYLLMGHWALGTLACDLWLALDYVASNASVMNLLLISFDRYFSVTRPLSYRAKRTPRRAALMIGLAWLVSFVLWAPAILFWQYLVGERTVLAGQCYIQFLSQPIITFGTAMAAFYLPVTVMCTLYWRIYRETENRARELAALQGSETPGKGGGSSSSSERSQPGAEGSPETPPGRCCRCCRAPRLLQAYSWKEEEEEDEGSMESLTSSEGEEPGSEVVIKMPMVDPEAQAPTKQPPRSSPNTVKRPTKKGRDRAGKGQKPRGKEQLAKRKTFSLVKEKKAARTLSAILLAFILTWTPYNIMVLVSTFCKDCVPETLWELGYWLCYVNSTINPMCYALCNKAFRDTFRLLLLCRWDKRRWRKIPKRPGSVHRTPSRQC
Method: as §1, §2, §3, §4, §5

M3 muscarinic receptor = target: T4, M3 muscarinic receptor (Homo sapiens, UniProt P20309); assay: Functional mobilization of intracellular calcium (FLIPR) in CHO cells expressing M3; conditions: for EC50: CHO cells expressing M3, FLIPR calcium; for Emax: CHO, 100% = maximum response obtained with the Carbachol control, read-out: M3 Efficacy
T4 construct: expressed in transfected cells; host or cells: CHO (M3-CHO)
Method: as §1, §2, §3, §4, §5

T4 sequence (P20309 whole entry): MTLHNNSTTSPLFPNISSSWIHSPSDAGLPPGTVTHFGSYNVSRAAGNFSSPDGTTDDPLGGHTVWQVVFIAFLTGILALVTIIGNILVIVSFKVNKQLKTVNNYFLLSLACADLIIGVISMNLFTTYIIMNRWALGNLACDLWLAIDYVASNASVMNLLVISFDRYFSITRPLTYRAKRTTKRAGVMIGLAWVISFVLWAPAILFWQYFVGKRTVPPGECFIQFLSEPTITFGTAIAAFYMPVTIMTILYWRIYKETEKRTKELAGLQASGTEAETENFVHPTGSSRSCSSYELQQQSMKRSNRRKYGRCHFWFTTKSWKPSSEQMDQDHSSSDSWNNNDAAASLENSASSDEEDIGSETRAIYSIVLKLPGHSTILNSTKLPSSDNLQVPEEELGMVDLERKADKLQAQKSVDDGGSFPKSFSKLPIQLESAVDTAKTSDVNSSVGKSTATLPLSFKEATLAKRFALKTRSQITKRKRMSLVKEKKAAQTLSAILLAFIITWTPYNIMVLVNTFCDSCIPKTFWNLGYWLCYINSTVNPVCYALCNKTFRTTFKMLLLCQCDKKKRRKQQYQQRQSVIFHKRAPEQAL

Compound	EC50 (M4 muscarinic receptor)	Emax (M4 muscarinic receptor)	EC50 (M2 muscarinic receptor)	Emax (M2 muscarinic receptor)	EC50 (M1 muscarinic receptor)	Emax (M1 muscarinic receptor)	EC50 (M3 muscarinic receptor)	Emax (M3 muscarinic receptor)
CC(C)C[C@@H](C(=O)N[C@H]1CCC2(CCN(CCC(C)(C)C)CC2)c2ccccc21)N1CCCC1=O [compound 23]	< 2000 nM	25 to 100%	> 5000 nM	< 25%	2000 to 5000 nM	< 25%	> 5000 nM	< 25%
CCN(C(=O)C1CCC(OC)CC1)[C@H]1CCC2(CCN(CCC(C)(C)C)CC2)c2ccccc21 (some centres unmarked) [compound 24]	< 2000 nM	25 to 100%	< 2000 nM	25 to 100%	> 5000 nM	< 25%	> 5000 nM	< 25%
CN1CC(C(=O)N[C@@H]2CCC3(CCN(CCC(C)(C)C)CC3)c3ccccc32)CC1=O (some centres unmarked) [compound 25]	< 2000 nM	25 to 100%	> 5000 nM	< 25%	> 5000 nM	< 25%	> 5000 nM	< 25%
CCC(=O)C1NCCC1C(=O)N[C@H]1CCC2(CCN(CCC(C)(C)C)CC2)c2cc(F)ccc21 (some centres unmarked) [compound 26]	< 2000 nM	25 to 100%	> 5000 nM	< 25%	< 2000 nM	25 to 100%	> 5000 nM	< 25%
CC(C)(C)CCN1CCC2(CC[C@H](NC(=O)C3CCCO3)c3ccc(F)cc32)CC1 (some centres unmarked) [compound 27]	< 2000 nM	25 to 100%	< 2000 nM	< 25%	< 2000 nM	25 to 100%	> 5000 nM	< 25%
CC(C)(C)CCN1CCC2(CC[C@H](NC(=O)CC3CCCC3=O)c3ccc(F)cc32)CC1 (some centres unmarked) [compound 28]	< 2000 nM	25 to 100%	2000 to 5000 nM	< 25%	< 2000 nM	25 to 100%	> 5000 nM	< 25%
CC(C)(C)CCN1CCC2(CC[C@@H](NC(=O)CCN3CCCC3=O)c3ccc(F)cc32)CC1 [compound 29]	< 2000 nM	25 to 100%	< 2000 nM	25 to 100%	< 2000 nM	25 to 100%	> 5000 nM	< 25%
CCN(C(=O)C1CCOC(C)(C)C1)[C@H]1CCC2(CCN(CCC(C)(C)C)CC2)c2ccccc21 (some centres unmarked) [compound 30]	2000 to 5000 nM	25 to 100%	> 5000 nM	< 25%	> 5000 nM	< 25%	> 5000 nM	< 25%
CC(C)(C)CCN1CCC2(CC[C@H](NC(=O)C3CCCO3)c3ccccc32)CC1 (some centres unmarked) [compound 31]	< 2000 nM	25 to 100%	< 2000 nM	< 25%	< 2000 nM	25 to 100%	> 5000 nM	< 25%
CC(=O)N[C@@H]1c2ccccc2C2(CCN(CCC(C)(C)C)CC2)CC1(F)F [compound 32]	< 2000 nM	25 to 100%	< 2000 nM	25 to 100%	< 2000 nM	25 to 100%	> 5000 nM	< 25%
CC(=O)NCC(=O)N[C@H]1CCC2(CCN(CCC(C)(C)C)CC2)c2cc(F)ccc21 [compound 33]	< 2000 nM	25 to 100%	< 2000 nM	25 to 100%	< 2000 nM	25 to 100%	> 5000 nM	< 25%
CCN(C(=O)C(C)NC(C)=O)[C@H]1CCC2(CCN(CCC(C)(C)C)CC2)c2ccccc21 (some centres unmarked) [compound 34]	< 2000 nM	25 to 100%	2000 to 5000 nM	< 25%	< 2000 nM	25 to 100%	> 5000 nM	< 25%
CC(C)NC(=O)C1CCC2(CCN(CCC(C)(C)C)CC2)c2ccccc21 (centres unmarked) [compound 35]	< 2000 nM	25 to 100%	> 5000 nM	< 25%	> 5000 nM	< 25%	> 5000 nM	< 25%

From US8003660B2, “Modulators of muscarinic receptors” (Vertex Pharmaceuticals Incorporated, priority 2006, dated 2011)
